Our source for the IC50 and Ratio IC50 values is ChEMBL document CHEMBL1143295, “Discovery of potent inhibitors of interleukin-2 inducible T-cell kinase (ITK) through structure-based drug design” (Bioorg Med Chem Lett, 2009).

The structures appear in SMILES notation.

For experiment [1], the target named is T1, Tyrosine-protein kinase ITK/TSK (Homo sapiens, UniProt Q08881).
T1 sequence (Q08881 whole entry): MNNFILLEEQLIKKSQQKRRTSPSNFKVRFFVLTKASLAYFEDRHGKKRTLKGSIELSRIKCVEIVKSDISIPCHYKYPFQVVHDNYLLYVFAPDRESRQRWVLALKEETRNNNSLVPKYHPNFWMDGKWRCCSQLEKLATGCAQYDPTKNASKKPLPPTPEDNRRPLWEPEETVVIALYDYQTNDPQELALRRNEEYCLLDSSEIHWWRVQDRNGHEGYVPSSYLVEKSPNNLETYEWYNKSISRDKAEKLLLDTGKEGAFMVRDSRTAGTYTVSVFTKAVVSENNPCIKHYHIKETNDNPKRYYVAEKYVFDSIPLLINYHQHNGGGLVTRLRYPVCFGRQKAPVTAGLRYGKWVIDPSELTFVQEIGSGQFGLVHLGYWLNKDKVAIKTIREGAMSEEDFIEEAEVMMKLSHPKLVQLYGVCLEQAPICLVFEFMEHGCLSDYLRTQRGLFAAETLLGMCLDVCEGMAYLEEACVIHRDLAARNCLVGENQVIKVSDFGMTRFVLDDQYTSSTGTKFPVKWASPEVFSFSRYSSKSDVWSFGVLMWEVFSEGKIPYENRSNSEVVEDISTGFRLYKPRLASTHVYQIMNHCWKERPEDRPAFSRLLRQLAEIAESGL
In words: Inhibition of ITK by DELFIA method.

For experiment [2], the target named is T1, Tyrosine-protein kinase ITK/TSK. Put plainly: Inhibition of human ITK expressed in chicken DT40 cells assessed as calcium influx by FLIPR. The class given is cell-based.
A further experiment deals with Insulin receptor (Homo sapiens, UniProt P06213). In words: Inhibition of IRK.
Sequence of Insulin receptor (P06213 28-758 limits assumed): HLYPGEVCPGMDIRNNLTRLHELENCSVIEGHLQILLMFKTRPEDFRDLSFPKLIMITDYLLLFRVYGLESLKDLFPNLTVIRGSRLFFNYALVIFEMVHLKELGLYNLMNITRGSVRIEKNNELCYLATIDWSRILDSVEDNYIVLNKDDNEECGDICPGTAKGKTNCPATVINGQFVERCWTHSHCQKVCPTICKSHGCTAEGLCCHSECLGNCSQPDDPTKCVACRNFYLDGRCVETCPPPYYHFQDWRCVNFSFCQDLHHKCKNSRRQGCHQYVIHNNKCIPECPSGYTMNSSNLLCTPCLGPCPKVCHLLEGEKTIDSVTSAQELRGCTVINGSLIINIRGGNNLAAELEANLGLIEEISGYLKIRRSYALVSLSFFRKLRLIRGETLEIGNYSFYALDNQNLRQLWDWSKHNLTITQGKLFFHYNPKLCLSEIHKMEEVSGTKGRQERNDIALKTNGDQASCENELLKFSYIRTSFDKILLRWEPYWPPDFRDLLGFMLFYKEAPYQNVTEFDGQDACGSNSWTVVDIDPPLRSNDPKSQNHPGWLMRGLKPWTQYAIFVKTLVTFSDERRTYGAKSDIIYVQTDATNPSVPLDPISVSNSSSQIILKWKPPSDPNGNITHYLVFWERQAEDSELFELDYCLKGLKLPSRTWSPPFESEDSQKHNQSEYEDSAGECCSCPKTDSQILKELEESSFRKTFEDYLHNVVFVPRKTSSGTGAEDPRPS
Sequence of Insulin receptor (P06213 763-1382 limits assumed): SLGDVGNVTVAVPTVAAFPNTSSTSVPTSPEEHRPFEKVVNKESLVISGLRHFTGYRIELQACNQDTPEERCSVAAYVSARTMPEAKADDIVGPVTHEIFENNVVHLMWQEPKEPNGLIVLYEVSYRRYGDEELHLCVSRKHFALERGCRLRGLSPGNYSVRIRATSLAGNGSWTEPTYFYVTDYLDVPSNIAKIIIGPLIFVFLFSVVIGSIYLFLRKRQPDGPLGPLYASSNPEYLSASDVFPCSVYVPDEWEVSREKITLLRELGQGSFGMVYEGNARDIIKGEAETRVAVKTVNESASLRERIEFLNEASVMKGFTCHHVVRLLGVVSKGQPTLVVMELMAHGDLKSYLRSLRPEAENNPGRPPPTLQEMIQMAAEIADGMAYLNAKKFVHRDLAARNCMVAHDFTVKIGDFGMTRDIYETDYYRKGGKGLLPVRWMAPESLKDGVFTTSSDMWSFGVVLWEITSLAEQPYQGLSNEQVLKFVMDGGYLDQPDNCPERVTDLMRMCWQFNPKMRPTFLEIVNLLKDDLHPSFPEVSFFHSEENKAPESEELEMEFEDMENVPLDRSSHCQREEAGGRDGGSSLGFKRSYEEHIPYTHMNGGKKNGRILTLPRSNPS
Experiment [3] can be described thus: Selectivity ratio of IC50 for IRK to IC50 for ITK.

Take `CN(C(=O)c1ccccc1)c1ccc2c(c1)nc(NC(=O)c1ccc(N3CCNCC3)s1)n2CCC(N)=O`: the IC50 in experiment [1] is 150 nM; in experiment [2], over 3.2 µM; against Insulin receptor, over 6 µM.

`CN(C(=O)c1ccccc1)c1ccc2c(c1)nc(NC(=O)c1ccc(-c3nccs3)s1)n2CCC(N)=O`: the IC50 on Insulin receptor was over 6 µM. The same measure, in the same setting: then `CN(C(=O)c1ccccc1)c1ccc2c(c1)[nH]/c(=N\C(=O)c1ccc(-c3ccc(C#N)nc3)s1)n2CCC(N)=O`, with over 6 µM. As to `CN(C(=O)c1ccccc1)c1ccc2c(c1)nc(NC(=O)c1cocn1)n2CCC(N)=O`, the IC50 in experiment [1] was 170 nM; in experiment [2] it was over 5 µM; against Insulin receptor it was over 6 µM. In turn, `CN(C(=O)c1ccccc1)c1ccc2c(c1)nc(NC(=O)c1ccc(C(=O)c3ccccc3)s1)n2CCC(N)=O` displayed an IC50 on Insulin receptor of over 6 µM.

Regarding `CN(C(=O)c1ccccc1)c1ccc2c(c1)nc(NC(=O)c1ccc(-c3cocn3)s1)n2CCC(N)=O`, on Insulin receptor, the IC50 was over 6 µM. Compound `CN(C(=O)c1ccccc1)c1ccc2c(c1)[nH]/c(=N\C(=O)c1cccc3ccccc13)n2CCC(N)=O` came in with an IC50 against Insulin receptor of 5.8 µM. As to `CN(C(=O)c1ccccc1)c1ccc2c(c1)nc(NC(=O)c1ccc(-c3ccc(F)nc3)s1)n2CCC(N)=O`, the IC50 at Insulin receptor was over 6 µM. On to `COc1ccc(C(=O)Nc2nc3cc(N(C)C(=O)c4ccccc4)ccc3n2CCC(N)=O)cc1`, for which the IC50 in experiment [1] is 170 nM; in experiment [2] it was over 5 µM; against Insulin receptor, over 6 µM. `CN(C(=O)c1ccccc1)c1ccc2c(c1)nc(NC(=O)c1ccc(-c3ccnc(C#N)c3)s1)n2CCC(N)=O`: the IC50 against Insulin receptor is over 6 µM. At Insulin receptor, `CN(C(=O)c1ccccc1)c1ccc2c(c1)[nH]/c(=N\C(=O)c1ccc(-c3ccccc3)s1)n2CCC(N)=O` yielded an IC50 of over 6 µM. On the same count and under the same terms, under `CN(C(=O)c1ccccc1)c1ccc2c(c1)[nH]/c(=N\C(=O)c1ccc(-c3cccnc3)s1)n2CCC(N)=O` stands over 6 µM. With `CN(C(=O)c1ccccc1)c1ccc2c(c1)nc(NC(=O)c1ccc(N3CCOCC3)s1)n2CCC(N)=O`, the values for the IC50 (in experiment [1]; in experiment [2]; against Insulin receptor) were 74 nM, over 3.2 µM and over 6 µM, respectively. `CN(C(=O)c1ccccc1)c1ccc2c(c1)[nH]/c(=N\C(=O)c1cccc(-c3ccccc3)c1)n2CCC(N)=O` gave an IC50 on Insulin receptor of over 6 µM. The same measure, in the same setting: under `CN(C(=O)c1ccccc1)c1ccc2c(c1)[nH]/c(=N\C(=O)c1ccc(-c3ccccn3)s1)n2CCC(N)=O` stands over 6 µM. On the same count and under the same terms, under `CN(C(=O)c1ccccc1)c1ccc2c(c1)[nH]/c(=N\C(=O)c1ccc(-c3ncco3)s1)n2CCC(N)=O` stands over 6 µM.

Consider `CN(C(=O)c1ccccc1)c1ccc2c(c1)[nH]/c(=N\C(=O)c1ccc(N3CCCCC3)s1)n2CCC(N)=O`, for which, on Insulin receptor, the IC50 is over 6 µM. With `CN(C(=O)c1ccccc1)c1ccc2c(c1)nc(NC(=O)c1ccc(OCc3ccccc3)s1)n2CCC(N)=O`, the IC50 against Insulin receptor was over 6 µM. Same read-out and setting: then `CN(C(=O)c1ccccc1)c1ccc2c(c1)[nH]/c(=N\C(=O)c1ccc(-c3ccncc3)s1)n2CCC(N)=O`, with over 6 µM; and `CN(C(=O)c1ccccc1)c1ccc2c(c1)nc(NC(=O)c1ccc3ccccc3c1)n2CCC(N)=O`, with over 6 µM; and `CN(C(=O)c1ccccc1)c1ccc2c(c1)nc(NC(=O)c1ccc(Oc3ccccc3)s1)n2CCC(N)=O`, with over 6 µM. On the same count and under the same terms, under `CN(C(=O)c1ccccc1)c1ccc2c(c1)nc(NC(=O)c1ccc(Br)cc1)n2CCC(N)=O` stands over 6 µM; under `CN(C(=O)c1ccccc1)c1ccc2c(c1)[nH]/c(=N\C(=O)c1ccc(N3CCCC3)s1)n2CCC(N)=O`, over 6 µM; under `CC(=O)c1ccc(C(=O)Nc2nc3cc(N(C)C(=O)c4ccccc4)ccc3n2CCC(N)=O)s1`, over 6 µM. `CN(C(=O)c1ccccc1)c1ccc2c(c1)[nH]/c(=N\C(=O)c1ccc(-c3csc(N)n3)s1)n2CCC(N)=O` showed an IC50 against Insulin receptor of over 6 µM. On to `CN(C(=O)c1ccccc1)c1ccc2c(c1)nc(NC(=O)c1ccc(-c3ccnc(F)c3)s1)n2CCC(N)=O`, for which the IC50 at Insulin receptor was over 6 µM. Same read-out and setting: then `CN(C(=O)c1ccccc1)c1ccc2c(c1)nc(NC(=O)c1ccno1)n2CCC(N)=O`, with over 6 µM. As for `CN(C(=O)c1ccccc1)c1ccc2c(c1)[nH]/c(=N\C(=O)c1cocn1)n2CCC(N)=O`, the Ratio IC50 in experiment [3] is over 1000. For the compound `CN(C(=O)c1ccccc1)c1ccc2c(c1)[nH]/c(=N\C(=O)c1ccc(-c3ccccc3)cc1)n2CCC(N)=O`, on Insulin receptor, the IC50 is over 6 µM. Turning to `CN(C(=O)c1ccccc1)c1ccc2c(c1)[nH]/c(=N\C(=O)c1cncs1)n2CCC(N)=O`, the figures for the IC50 (in experiment [1]; in experiment [2]; against Insulin receptor) were 130 nM, over 5 µM and 1.6 µM, respectively.

`CN(C(=O)c1ccccc1)c1ccc2c(c1)nc(NC(=O)c1ccsc1)n2CCC(N)=O`: on Insulin receptor, the IC50 was found to be 0.24 µM. In the case of `CN(C(=O)c1ccccc1)c1ccc2c(c1)nc(NC(=O)c1cscn1)n2CCC(N)=O`, the values for the IC50 (in experiment [1]; in experiment [2]; on Insulin receptor) were 340 nM, over 5 µM and 6.1 µM, respectively. On to `CC(C)C(=O)c1ccc(C(=O)Nc2nc3cc(N(C)C(=O)c4ccccc4)ccc3n2CCC(N)=O)s1`, for which the IC50 against Insulin receptor is over 6 µM. On Insulin receptor, `CN(C(=O)c1ccccc1)c1ccc2c(c1)nc(NC(=O)c1ccc(C#N)cc1)n2CCC(N)=O` yielded a half-maximal inhibitory concentration (IC50) of over 6 µM. Still for that read-out and setting: under `CN(C(=O)c1ccccc1)c1ccc2c(c1)[nH]/c(=N\C(=O)c1ncco1)n2CCC(N)=O` stands over 6 µM.

Turning to `CN(C(=O)c1ccccc1)c1ccc2c(c1)nc(NC(=O)c1ccc(Br)s1)n2CCC(N)=O`, the IC50 is 15 nM in experiment [1], 0.1 µM in experiment [2] and 0.63 µM against Insulin receptor.

With `CN(C(=O)c1ccccc1)c1ccc2c(c1)[nH]/c(=N\C(=O)c1ccc(-c3cncc(C#N)c3)s1)n2CCC(N)=O`, at Insulin receptor, the IC50 was over 6 µM. For `CN(C(=O)c1ccccc1)c1ccc2c(c1)[nH]/c(=N\C(=O)c1ccc(-c3cnccn3)s1)n2CCC(N)=O`, the 50% inhibitory concentration (IC50) against Insulin receptor is over 6 µM. Consider `CN(C(=O)c1ccccc1)c1ccc2c(c1)[nH]/c(=N\C(=O)c1cnco1)n2CCC(N)=O`, for which the IC50 in experiment [1] was 180 nM; in experiment [2], over 5 µM; against Insulin receptor, over 6 µM. Besides, the Ratio IC50 in experiment [3] is over 1000.

By IC50 is commonly meant the concentration that inhibits the measured activity by half.
